Laboratory results reported in PMC3765993, “The duration of sleep promoting efficacy by dual orexin receptor antagonists is dependent upon receptor occupancy threshold” (BMC Neuroscience, 2013).

Tests used:
Orexin 2 receptor = molecular target: T1, Orexin 2 receptor (Homo sapiens, UniProt O43614); assay: Orexin 2 receptor binding kinetics; conditions: for T1/2 ON (binding half-life): almorexant applied 3-fold above its Kd (value an underestimate); for koff: read-out: KOFF (dissociation constant)
T1 sequence (O43614 1-444): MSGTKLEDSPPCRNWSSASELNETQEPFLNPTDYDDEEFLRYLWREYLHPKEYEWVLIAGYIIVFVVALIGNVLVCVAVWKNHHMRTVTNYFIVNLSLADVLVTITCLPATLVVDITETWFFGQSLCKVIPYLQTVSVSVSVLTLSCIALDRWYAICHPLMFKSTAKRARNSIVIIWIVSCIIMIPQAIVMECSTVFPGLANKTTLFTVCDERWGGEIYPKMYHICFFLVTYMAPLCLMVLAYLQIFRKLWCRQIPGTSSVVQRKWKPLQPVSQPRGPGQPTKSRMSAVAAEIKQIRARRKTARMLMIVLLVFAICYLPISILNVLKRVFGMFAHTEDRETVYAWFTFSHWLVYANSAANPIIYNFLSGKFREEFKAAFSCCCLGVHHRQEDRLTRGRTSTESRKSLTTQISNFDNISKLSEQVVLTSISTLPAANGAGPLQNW

rhesus monkeys = conditions: sleep-promoting doses; cited from earlier work

Row | Compound | KON (association constant) (Orexin 2 receptor) [mol⁻¹ min⁻¹] | Kd (Orexin 2 receptor) [nM] | T1/2 OFF (half-life off-rates) (Orexin 2 receptor) [min] | T1/2 ON (binding half-life) (Orexin 2 receptor) [min] | koff (Orexin 2 receptor) [s⁻¹] | Cognitive assessment in DMS and SCRT tasks within 2 h following treatment (rhesus monkeys)
1 | Cc1ccc(-c2ncccn2)c(C(=O)N2C[C@H](COc3ccc(F)cn3)CC[C@H]2C)c1 [MK-6096, [(2R,5R)-5-{[(5-fluoropyridin-2-yl)oxy]methyl}-2-methylpiperidin-1-yl][5-methyl-2-(pyrimidin-2-yl)phenyl]methanone] | 1.69e+07 | 0.338 | 118 | 62.9 | 0.000113 | 
2 | Cc1nc(C(=O)N2CCCC[C@H]2CNC(=O)c2cccc3occc23)c(-c2ccc(F)cc2)s1 [SB-649868] | 2.56e+07 | 0.163 | 57.0 | 37.0 | 0.00021 | 
3 | Cc1ccc(-c2nc3ccc(C)cn3c2CC(=O)N(C)C)cc1 [Zolpidem] |  |  |  |  |  | substantial deficits
